Results on 21 compounds are retold here after patent US10123984B2, “Neprilysin inhibitors” (THERAVANCE BIOPHARMA R&D IP, LLC, priority 2011, dated 2018).

One assay deals with T1, NEP (Homo sapiens (Human), UniProt P08473). As to the kind of experiment: Assay 1: in vitro enzyme inhibition assay at human NEP (fluorogenic peptide substrate). The assay is classed as biochemical. The following applies: pKi values at human NEP, comparative examples, exact values.
Description: The assays were performed in 384-well white opaque plates at 37° C. using the fluorogenic peptide substrates at a concentration of 10 μM in Assay Buffer (NEP: 50 mM HEPES, pH 7.5, 100 mM NaCl, 0.01% polyethylene glycol sorbitan monolaurate (Tween-20), 10 μM ZnSO4; ACE: 50 mM HEPES, pH 7.5, 100 mM NaCl, 0.01% Tween-20, 1 μM ZnSO4).
Test compounds were assayed over the range of concentrations from 10 μM to 20 pM. Test compounds were added to the enzymes and incubated for 30 minute at 37° C. prior to initiating the reaction by the addition of substrate. Reactions were terminated after 20 minutes of incubation at 37° C. by the addition of glacial acetic acid to a final concentration of 3.6% (v/v).
Inhibition constants were obtained by nonlinear regression of the data using the equation (GraphPad Software, Inc., San Diego, Calif.): v=v0/[1+(I/K′)] where v is the reaction rate, v0 is the uninhibited reaction rate, I is the inhibitor concentration and K′ is the apparent inhibition constant.
The compound `O=C(O)CC(=O)N[C@H](Cc1ccc(-c2ccccc2)cc1)CC(O)C(=O)O` (stereo partly drawn) [Comparative Compound C, (R)-5-Biphenyl-4-yl-4-(2-carboxyacetylamino)-2-hydroxypentanoic Acid] had an inhibitory constant (Ki) of 200 nM.

Turning to `O=C(O)CCC(=O)N[C@H](Cc1ccc(-c2ccccc2)cc1)CC(O)C(=O)O` (stereo partly drawn) [Comparative Compound D, (R)-5-Biphenyl-4-yl-4-(3-carboxypropionylamino)-2-hydroxypentanoic Acid], the Ki is 39.8 nM.

`O=C(O)CCCC(=O)N[C@H](Cc1ccc(-c2ccccc2)cc1)CC(O)C(=O)O` (stereo partly drawn) [Comparative Compound E, (R)-5-Biphenyl-4-yl-4-(4-carboxybutyrylamino)-2-hydroxypentanoic Acid] gave an inhibition constant Ki of 50.1 nM.

`O=C(O)CC(=O)N[C@H](Cc1ccc(-c2ccccc2)cc1)C[C@@H](CO)C(=O)O` [Comparative Compound F, (2S,4S)-5-Biphenyl-4-yl-4-(2-carboxy-acetylamino)-2-hydroxymethylpentanoic Acid] showed an inhibition constant (Ki) of 6.31 nM.

`O=C(O)CCC(=O)N[C@H](Cc1ccc(-c2ccccc2)cc1)C[C@@H](CO)C(=O)O` [Comparative Compound G, (2S,4S)-5-Biphenyl-4-yl-4-(3-carboxy-propionylamino)-2-hydroxymethylpentanoic Acid]: the Ki was 1 nM.

In turn, `O=C(O)CCCC(=O)N[C@H](Cc1ccc(-c2ccccc2)cc1)C[C@@H](CO)C(=O)O` [Comparative Compound H, (2S,4S)-5-Biphenyl-4-yl-4-(4-carboxy-butyrylamino)-2-hydroxymethylpentanoic Acid] gave an inhibition constant Ki of 2.51 nM.

The compound `O=C(O)CC(=O)N[C@H](Cc1ccc(-c2cccc(Cl)c2)cc1)C[C@@H](O)C(=O)O` [Comparative Compound I, (2R,4R)-4-(2-Carboxy-acetylamino)-5-(3′-chloro-biphenyl-4-yl)-2-hydroxy-pentanoic Acid] had a Ki of 3.98 nM.

`O=C(O)CCC(=O)N[C@H](Cc1ccc(-c2cccc(Cl)c2)cc1)C[C@@H](O)C(=O)O` [Comparative Compound J, (2R,4R)-4-(3-Carboxy-propionylamino)-5-(3′-chloro-biphenyl-4-yl)-2-hydroxy-pentanoic Acid] showed a Ki of 0.316 nM.

The compound `O=C(O)CCCC(=O)N[C@H](Cc1ccc(-c2cccc(Cl)c2)cc1)C[C@@H](O)C(=O)O` [Comparative Compound K, (2R,4R)-4-(4-Carboxy-butyrylamino)-5-(3′-chloro-biphenyl-4-yl)-2-hydroxy-pentanoic Acid] gave an inhibitory constant (Ki) of 0.501 nM.

As for `O=C(O)C(=O)N[C@H](Cc1ccc(-c2ccccc2)cc1)CC(O)C(=O)O` (stereo partly drawn) [Example 1, (R)-5-Biphenyl-4-yl-2-hydroxy-4-(oxalylamino)pentanoic Acid], the inhibition constant Ki is 12.6 nM.

The compound `O=C(O)C(=O)N[C@H](Cc1ccc(-c2cccc(Cl)c2)cc1)C[C@@H](O)C(=O)O` [Example 2A, (2R,4R)-5-(3′-Chlorobiphenyl-4-yl)-2-hydroxy-4-(oxalylamino)pentanoic Acid] gave a Ki of 0.2 nM.

Still in this assay, the particulars now being: pKi values at human NEP, reported as ranges.
Regarding `O=C(N[C@H](Cc1ccc(-c2cccc(Cl)c2)cc1)C[C@@H](O)C(=O)O)C(=O)OCCC(F)(F)F` [Example 2N, (2R,4R)-5-(3′-Chlorobiphenyl-4-yl)-2-hydroxy-4-[(3,3,3-trifluoropropoxyoxalyl)-amino]pentanoic Acid], the pKi is on record as ≥9.

On to `CC(C)COC(=O)C(=O)N[C@H](Cc1ccc(-c2cc(Cl)ccc2Cl)cc1)C[C@@H](O)C(=O)O` [Example 3D, (2R,4R)-5-(2′,5′-Dichlorobiphenyl-4-yl)-2-hydroxy-4-(isobutoxyoxalylamino)-pentanoic Acid], for which the inhibition constant Ki is ≤ 1 nM.

As for `O=C(O)C(=O)N[C@H](Cc1ccc(-c2ccccc2F)cc1)C[C@@H](CO)C(=O)O` [Example 7B, (2S,4S)-5-(2′-Fluorobiphenyl-4-yl)-2-hydroxymethyl-4-(oxalylamino)pentanoic Acid], the Ki is ≤ 1 nM.

As to `O=C(O)C(=O)NN(Cc1ccc(-c2cc(Cl)ccc2F)cc1)C[C@@H](O)C(=O)O` [Example 14A, (R)-3-[N-(5′-Chloro-T-fluorobiphenyl-4-ylmethyl)-N-oxalylhydrazino]-2-hydroxypropionic Acid], the inhibition constant (Ki) is ≤ 1 nM.

`CC(C)COC(=O)C(=O)NN(Cc1ccc(-c2cc(Cl)ccc2F)cc1)C[C@@H](O)C(=O)O` [Example 14C, (R)-3-[N-(5′-Chloro-2′-fluorobiphenyl-4-ylmethyl)-N′-isobutoxyoxalylhydrazino]-2-hydroxypropionic Acid] gave an inhibition constant (Ki) of 1.26 to 10 nM.

For the compound “(2R,4R)-5-(3,3′-Dichlorobiphenyl-4-yl)-2-hydroxy-4-(oxalylamino)pentanoic acid ethyl ester [Example 5-17]”, the pKi is on record as ≥9.

“(R)-3-N-(3,5′-Dichloro-2′-fluorobiphenyl-4-ylmethyl)-N′-oxalyl-hydrazinol-2-hydroxypropionic acid [Example 5-13]”: the negative-log Ki (pKi) is recorded as ≥9.

The target in another assay is T1, NEP.
Assay: not given
The following applies: relative to 21a (succinic acid substituent); quoted from Ksander et al.; cited from earlier work.
For `C[C@H](C[C@@H](Cc1ccc(-c2ccccc2)cc1)NC(=O)CCCC(=O)O)C(=O)O` [Example 21e], the decrease in activity is 18 fold.

Regarding `C[C@H](C[C@@H](Cc1ccc(-c2ccccc2)cc1)NC(=O)CCCCC(=O)O)C(=O)O` [Example 21f], the decrease in activity was 65 fold.

For the compound `C[C@H](CC(Cc1ccc(-c2ccccc2)cc1)NC(=O)CC(=O)O)C(=O)O` (stereo partly drawn) [Example 21g], the decrease in activity is on record as 18 fold.
